The source of these data is EP2837626A1, “Indolinone derivatives as GRK5 modulators” (Max-Planck-Gesellschaft zur Förderung der Wissenschaften …, priority 2013, dated 2015).

Where two headings read alike, the source gives them in different places. A value given as a limit tells only on which side of the number the result lay.

One test has as its target T1, full length GRK5 (Homo sapiens, UniProt P34947).
T1 construct: 6/2 fold concentrated full length GRK5 (Millipore, #14-714) in reaction buffer is added to each well; purchased Millipore 14-714
Kind of test: IC50 determination of compounds inhibiting GRK5 by ADP Glo Kinase Assay technology (Promega). Format: biochemical.

A further test addresses T2, GRK5 (Homo sapiens, UniProt P34947).
T2 construct: purchased Millipore
Kind of test: IC50 determination of compounds inhibiting GRK5 by Millipore KinaseProfiler (radiometric filtration binding assay). It counts as biochemical. The conditions noted are these: 2 mg/mL casein, 40 minutes at room temperature. Here is the method:
IC50 values are determined by a radiometric based filtration binding assay, namely Millipore KinaseProfiler™. GRK5 is incubated with 8 mM MOPS pH 7.0, 0.2 mM EDTA, 2 mg/mL casein, 10 mM MgAcetate and […] (specific activity approx. 500 cpm/pmol, concentration as required). The reaction is initiated by the addition of the MgATP mix. After incubation for 40 minutes at room temperature, the reaction is stopped by the addition of 3 % phosphoric acid solution. 10 µL of the reaction is then spotted onto a P30 filtermat and washed three times for 5 minutes in 75 mM phosphoric acid and once in methanol prior to drying and scintillation counting.

Where [1] appears, read: 20 nM GRK5, 18.7 µM ATP, 10 µM casein, 12 concentrations, triplicates, read-out: GRK5 IC50.

T2 sequence (P34947 whole entry): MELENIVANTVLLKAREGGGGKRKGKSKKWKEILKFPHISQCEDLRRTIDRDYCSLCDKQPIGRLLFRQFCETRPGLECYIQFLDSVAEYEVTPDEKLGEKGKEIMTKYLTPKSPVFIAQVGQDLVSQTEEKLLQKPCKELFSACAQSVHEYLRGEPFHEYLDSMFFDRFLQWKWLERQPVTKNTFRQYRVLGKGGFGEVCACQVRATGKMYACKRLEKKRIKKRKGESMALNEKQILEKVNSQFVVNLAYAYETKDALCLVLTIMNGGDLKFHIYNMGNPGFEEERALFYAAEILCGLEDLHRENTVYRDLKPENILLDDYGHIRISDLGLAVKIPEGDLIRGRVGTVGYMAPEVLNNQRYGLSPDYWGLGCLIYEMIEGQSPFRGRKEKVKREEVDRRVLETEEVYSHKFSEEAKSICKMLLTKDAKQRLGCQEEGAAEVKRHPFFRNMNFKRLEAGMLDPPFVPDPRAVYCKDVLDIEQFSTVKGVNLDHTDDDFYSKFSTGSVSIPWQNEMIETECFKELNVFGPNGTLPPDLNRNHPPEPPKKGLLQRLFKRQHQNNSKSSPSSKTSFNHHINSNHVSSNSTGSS
T1 sequence (P34947 whole entry): as above

With `COc1ccc([C@@H](C)NC(=O)c2ccc3c(c2)/C(=C/Nc2ccc(CN4CCCCC4)cc2)C(=O)N3)cc1` [Compound 70, (3Z)-N-[(1R)-1-(4-methoxyphenyl)ethyl]-2-oxo-3-({[4-(piperidin-1-ylmethyl)phenyl]amino}methylene)indoline-5-carboxamide], the IC50 is under 5 µM at full length GRK5 (read-out: GRK5 IC50, 20 nM GRK5, 18.7 µM ATP, 10 µM casein, 12 concentrations, triplicates) and under 5 µM at GRK5.

Take `C[C@@H](c1ccccc1)N(C)C(=O)c1ccc2c(c1)/C(=C/Nc1ccc(CN3CCCCC3)cc1)C(=O)N2` [Compound 71, (3Z)-N-methyl-2-oxo-N-[(1S)-1-phenylethyl]-3-({[4-(piperidin-1-ylmethyl)phenyl]amino}methylene)indoline-5-carboxamide]: the IC50 at full length GRK5 (setting [1]) and on GRK5 was under 5 µM throughout.

Regarding `Cc1ccc([C@@H](C)NC(=O)c2ccc3c(c2)/C(=C/Nc2ccc(CN4CCCCC4)cc2)C(=O)N3)cc1` [Compound 72, (3Z)-N-[(1R)-1-(4-methylphenyl)ethyl]-2-oxo-3-({[4-(piperidin-1-ylmethyl)phenyl]amino}methylene)indoline-5-carboxamide], the IC50 on full length GRK5 (setting [1]) and on GRK5 was under 5 µM each time.

For `C[C@@H](NC(=O)c1ccc2c(c1)/C(=C/Nc1ccc(CN3CCCCC3)cc1)C(=O)N2)c1ccc(Cl)cc1` [Compound 73, (3Z)-N-[(1R)-1-(4-chlorophenyl)ethyl]-2-oxo-3-({[4-(piperidin-1-ylmethyl)phenyl]amino}methylene)indoline-5-carboxamide], the IC50 at full length GRK5 (setting [1]) and at GRK5 was under 5 µM each time.
